Test results as given in patent EP1247803A2, “Indolinone compounds suitable for modulation of protein kinases” (Sugen, Inc., priority 1996, dated 1998).

Columns and labels:
PDGF-R = PDGF-R (Homo sapiens, UniProt P09619); assay: PDGF-R ELISA; type: cell-based
Excerpt: A PDGF-R ELISA is described in International Patent Publication No. WO 96/40116, published December 19, 1996 by Tang et al.

EGFR = molecular target: T1, EGFR (Homo sapiens, UniProt P00533); assay: EGFR ELISA assay (in vitro kinase activity, EGFR captured from A431 cell lysate); type: biochemical; set-up: concentration or dose not given beside the values
T1 construct: Add 7 ug A431 cell lysate per well (EGFR source); endogenous in cells; host or cells: A431
T1 sequence (P00533 25-1210): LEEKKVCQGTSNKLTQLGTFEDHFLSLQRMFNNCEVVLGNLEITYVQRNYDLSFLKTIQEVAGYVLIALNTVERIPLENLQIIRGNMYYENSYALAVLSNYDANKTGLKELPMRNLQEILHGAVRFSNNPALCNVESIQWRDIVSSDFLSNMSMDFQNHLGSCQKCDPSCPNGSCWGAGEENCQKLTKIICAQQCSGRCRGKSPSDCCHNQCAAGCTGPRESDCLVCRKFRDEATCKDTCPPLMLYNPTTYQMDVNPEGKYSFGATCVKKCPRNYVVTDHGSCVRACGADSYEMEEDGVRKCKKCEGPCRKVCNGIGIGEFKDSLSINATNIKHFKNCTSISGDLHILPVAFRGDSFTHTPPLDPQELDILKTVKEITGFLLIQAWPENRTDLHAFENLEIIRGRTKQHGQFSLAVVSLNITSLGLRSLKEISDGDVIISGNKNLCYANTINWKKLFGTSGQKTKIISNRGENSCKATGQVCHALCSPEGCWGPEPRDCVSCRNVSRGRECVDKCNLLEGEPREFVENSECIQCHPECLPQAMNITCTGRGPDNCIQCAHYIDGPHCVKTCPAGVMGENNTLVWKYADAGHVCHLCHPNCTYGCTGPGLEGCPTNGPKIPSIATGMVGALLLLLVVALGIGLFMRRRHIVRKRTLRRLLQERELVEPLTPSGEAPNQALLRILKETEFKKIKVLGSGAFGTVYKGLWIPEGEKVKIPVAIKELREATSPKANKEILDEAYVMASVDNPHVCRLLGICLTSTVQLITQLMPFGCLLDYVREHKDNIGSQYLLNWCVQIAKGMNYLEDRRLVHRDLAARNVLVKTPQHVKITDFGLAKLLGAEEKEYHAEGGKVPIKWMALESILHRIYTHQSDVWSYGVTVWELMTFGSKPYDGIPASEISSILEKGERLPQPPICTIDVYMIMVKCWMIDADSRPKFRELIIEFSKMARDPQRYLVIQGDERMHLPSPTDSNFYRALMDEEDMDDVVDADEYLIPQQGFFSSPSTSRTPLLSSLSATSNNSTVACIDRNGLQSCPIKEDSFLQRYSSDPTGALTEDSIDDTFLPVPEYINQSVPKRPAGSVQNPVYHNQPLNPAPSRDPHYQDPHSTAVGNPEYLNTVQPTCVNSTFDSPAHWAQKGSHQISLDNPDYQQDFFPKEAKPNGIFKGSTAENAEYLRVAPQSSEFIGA
Method in brief: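 EGFR from A431 lysate was captured on anti-EGFR antibody-coated plates and preincubated with compounds for 30 min. Autophosphorylation ran 5 min with 3 uM ATP and 5 mM MnCl2 (final), stopped with 20 mM EDTA. Phosphotyrosine was detected by anti-pTyr ELISA with ABTS/H2O2, read at 410 nm.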

PDGF-R, sequence (P09619 33-1106, species assumed): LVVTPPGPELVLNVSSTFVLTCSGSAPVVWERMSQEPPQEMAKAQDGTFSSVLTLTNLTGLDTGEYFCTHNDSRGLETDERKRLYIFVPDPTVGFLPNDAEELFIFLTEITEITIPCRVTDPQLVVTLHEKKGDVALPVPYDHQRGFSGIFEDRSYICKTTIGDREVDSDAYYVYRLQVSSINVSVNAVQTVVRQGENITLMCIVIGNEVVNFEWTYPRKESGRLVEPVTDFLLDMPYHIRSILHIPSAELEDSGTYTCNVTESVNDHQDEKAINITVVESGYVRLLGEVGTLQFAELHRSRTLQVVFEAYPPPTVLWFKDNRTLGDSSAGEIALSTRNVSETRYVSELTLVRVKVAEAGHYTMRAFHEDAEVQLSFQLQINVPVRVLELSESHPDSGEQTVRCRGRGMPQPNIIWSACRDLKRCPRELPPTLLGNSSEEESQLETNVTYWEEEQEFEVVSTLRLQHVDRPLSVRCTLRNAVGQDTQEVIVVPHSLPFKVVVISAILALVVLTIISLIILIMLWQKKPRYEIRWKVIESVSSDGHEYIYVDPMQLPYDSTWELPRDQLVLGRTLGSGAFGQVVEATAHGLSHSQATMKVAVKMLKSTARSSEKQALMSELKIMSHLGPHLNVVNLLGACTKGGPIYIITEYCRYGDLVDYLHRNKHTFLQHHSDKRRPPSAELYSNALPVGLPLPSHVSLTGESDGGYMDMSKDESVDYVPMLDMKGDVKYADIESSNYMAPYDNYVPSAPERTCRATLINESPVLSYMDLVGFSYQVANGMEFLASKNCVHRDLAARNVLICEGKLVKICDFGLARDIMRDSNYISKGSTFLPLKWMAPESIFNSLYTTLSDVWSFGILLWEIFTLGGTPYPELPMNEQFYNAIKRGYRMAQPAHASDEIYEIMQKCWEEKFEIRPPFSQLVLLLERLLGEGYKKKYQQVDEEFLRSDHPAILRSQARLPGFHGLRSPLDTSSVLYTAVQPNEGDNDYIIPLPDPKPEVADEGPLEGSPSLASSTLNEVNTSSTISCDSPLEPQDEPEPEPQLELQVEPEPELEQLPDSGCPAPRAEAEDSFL

Structure (SMILES): CCc1ccc(C=C2C(=O)Nc3ccc(S(=O)(=O)Nc4ccc(C(F)(F)F)cc4)cc32)o1 [10724/E10]
- PDGF Kinase %Inhibition (PDGF-R): 34.9%
- Biochem EGFR %Inhibition (EGFR): 41.4%

Structure (SMILES): CNS(=O)(=O)c1ccc2c(c1)C(=Cc1sc3scc(C)c3c1C)C(=O)N2 [10724/D11]
- PDGF Kinase %Inhibition (PDGF-R): 29.3%
- Biochem EGFR %Inhibition (EGFR): 12.9%

Structure (SMILES): Cc1c(Br)ccc2c1C(=Cc1cc3c4c(c1O)CCCN4CCC3)C(=O)N2 [10724/C05]
- PDGF Kinase %Inhibition (PDGF-R): 20.3%
- Biochem EGFR %Inhibition (EGFR): -0.8%

Structure (SMILES): CC(C)(C)c1cc(C=C2C(=O)Nc3ccc(CCCl)cc32)c(O)c(C(C)(C)C)c1 [10723/G11]
- PDGF Kinase %Inhibition (PDGF-R): -7.7%
- Biochem EGFR %Inhibition (EGFR): -35.0%

Structure (SMILES): CN(C)c1ccc(C=C2C(=O)Nc3ccc(CCCl)cc32)c2ccccc12 [10724/G02]
- PDGF Kinase %Inhibition (PDGF-R): -7.6%
- Biochem EGFR %Inhibition (EGFR): 42.5%

Structure (SMILES): COc1ccc(Br)c(C=C2C(=O)Nc3c(Br)cc(Br)cc32)c1O [10725/A03]
- PDGF Kinase %Inhibition (PDGF-R): 5.9%
- Biochem EGFR %Inhibition (EGFR): -38.2%

Structure (SMILES): O=C1Nc2ccc(CCCl)cc2C1=Cc1ccc([N+](=O)[O-])c(O)c1 [10724/G04]
- PDGF Kinase %Inhibition (PDGF-R): -12.4%
- Biochem EGFR %Inhibition (EGFR): 12.9%

Structure (SMILES): O=C1Nc2c(Br)cc(Br)cc2C1=Cc1cc2c3c(c1O)CCCN3CCC2 [10724/A05]
- PDGF Kinase %Inhibition (PDGF-R): 5.0%
- Biochem EGFR %Inhibition (EGFR): 20.3%

Structure (SMILES): O=C1Nc2c(Br)cc(Br)cc2C1=Cc1ccc([N+](=O)[O-])c(O)c1 [10724/A04]
- PDGF Kinase %Inhibition (PDGF-R): 5.0%
- Biochem EGFR %Inhibition (EGFR): 15.4%

Structure (SMILES): CCc1ccc(C=C2C(=O)Nc3ccc(CCCl)cc32)o1 [10724/G10]
- PDGF Kinase %Inhibition (PDGF-R): -15.9%
- Biochem EGFR %Inhibition (EGFR): -10.6%

Structure (SMILES): CN(C)c1ccc(C=C2C(=O)Nc3c(Br)cc(Br)cc32)c2ccccc12 [10724/A02]
- PDGF Kinase %Inhibition (PDGF-R): 6.3%
- Biochem EGFR %Inhibition (EGFR): 36.7%

Structure (SMILES): O=C1Nc2ccc(CCCl)cc2C1=Cc1ccc(O)c([N+](=O)[O-])c1 [10724/G03]
- PDGF Kinase %Inhibition (PDGF-R): -2.7%
- Biochem EGFR %Inhibition (EGFR): 7.8%

Structure (SMILES): CN(C)c1ccc(C=C2C(=O)Nc3ccc(S(=O)(=O)Nc4ccc(C(F)(F)F)cc4)cc32)c2ccccc12 [10724/E02]
- PDGF Kinase %Inhibition (PDGF-R): -54.2%
- Biochem EGFR %Inhibition (EGFR): 39.8%

Structure (SMILES): O=C1Nc2c(Br)cc(Br)cc2C1=Cc1ccc(N2CCOCC2)cc1 [10725/A08]
- PDGF Kinase %Inhibition (PDGF-R): 14.1%
- Biochem EGFR %Inhibition (EGFR): 10.9%

Structure (SMILES): O=C1Nc2ccc(I)cc2C1=Cc1ccc(N2CCOCC2)cc1 [10725/B08]
- PDGF Kinase %Inhibition (PDGF-R): 29.4%
- Biochem EGFR %Inhibition (EGFR): 41.8%

Structure (SMILES): O=C1Nc2ccc(CCCl)cc2C1=Cc1cc2c3c(c1O)CCCN3CCC2 [10724/G05]
- PDGF Kinase %Inhibition (PDGF-R): -10.3%
- Biochem EGFR %Inhibition (EGFR): -20.8%

Structure (SMILES): CCc1ccc(C=C2C(=O)Nc3c(Br)cc(Br)cc32)o1 [10724/A10]
- PDGF Kinase %Inhibition (PDGF-R): 28.6%
- Biochem EGFR %Inhibition (EGFR): 40.0%

Structure (SMILES): Cc1cc(C=C2C(=O)Nc3c(Br)cc(Br)cc32)[nH]n1 [10725/A05]
- PDGF Kinase %Inhibition (PDGF-R): 13.1%
- Biochem EGFR %Inhibition (EGFR): 7.9%

Structure (SMILES): O=C1Nc2ccc(I)cc2C1=Cc1cc2ccccc2o1 [10724/B07]
- PDGF Kinase %Inhibition (PDGF-R): 27.2%
- Biochem EGFR %Inhibition (EGFR): 44.0%

Structure (SMILES): COC(=O)Cc1c(Cl)[nH]c(C=C2C(=O)Nc3c(Br)cc(Br)c(C)c32)c1C(=O)OC [10725/A09]
- PDGF Kinase %Inhibition (PDGF-R): 29.4%
- Biochem EGFR %Inhibition (EGFR): 4.9%

Structure (SMILES): O=C1Nc2c(Br)cc(Br)cc2C1=Cc1cccn1-c1ccc(Cl)cc1 [10724/A09]
- PDGF Kinase %Inhibition (PDGF-R): 19.6%
- Biochem EGFR %Inhibition (EGFR): 1.6%

Structure (SMILES): O=C1Nc2ccc(S(=O)(=O)Nc3ccc(C(F)(F)F)cc3)cc2C1=Cc1cc2ccccc2o1 [10724/E07]
- PDGF Kinase %Inhibition (PDGF-R): 0.1%
- Biochem EGFR %Inhibition (EGFR): 9.4%

Structure (SMILES): COc1cccc(O)c1C=C1C(=O)Nc2ccc(S(=O)(=O)Nc3ccc(C(F)(F)F)cc3)cc21 [10717/E10]
- Biochem EGFR %Inhibition (EGFR): -6.1%

Structure (SMILES): COc1cc(C)cc(O)c1C=C1C(=O)Nc2c(Br)cc(Br)cc21 [10725/A06]
- PDGF Kinase %Inhibition (PDGF-R): 40.9%
- Biochem EGFR %Inhibition (EGFR): -9.5%

Structure (SMILES): CC(C)c1cc(C=C2C(=O)Nc3ccc(S(=O)(=O)Nc4ccc(C(F)(F)F)cc4)cc32)cc(C(C)C)c1O [10724/E06]
- PDGF Kinase %Inhibition (PDGF-R): 6.3%
- Biochem EGFR %Inhibition (EGFR): 1.6%

Structure (SMILES): O=C1Nc2ccc(CCCl)cc2C1=Cc1cccc(Br)c1 [10723/G10]
- PDGF Kinase %Inhibition (PDGF-R): -27.8%
- Biochem EGFR %Inhibition (EGFR): -4.1%

Structure (SMILES): O=C1Nc2ccc(S(=O)(=O)Nc3ccc(C(F)(F)F)cc3)cc2C1=Cc1ccc[nH]1 [10717/E09]
- Biochem EGFR %Inhibition (EGFR): -5.8%

Structure (SMILES): Cc1csc2sc(C=C3C(=O)Nc4ccc(CCCl)cc43)c(C)c12 [10724/G11]
- PDGF Kinase %Inhibition (PDGF-R): -29.1%
- Biochem EGFR %Inhibition (EGFR): -29.5%

Structure (SMILES): CNS(=O)(=O)c1ccc2c(c1)C(=Cc1cccn1-c1ccc(Cl)cc1)C(=O)N2 [10724/D09]
- PDGF Kinase %Inhibition (PDGF-R): 18.9%
- Biochem EGFR %Inhibition (EGFR): -15.3%

Structure (SMILES): Cc1c(Br)ccc2c1C(=Cc1ccc(N(C)C)c3ccccc13)C(=O)N2 [10724/C02]
- PDGF Kinase %Inhibition (PDGF-R): -9.0%
- Biochem EGFR %Inhibition (EGFR): 53.6%

Structure (SMILES): CNS(=O)(=O)c1ccc2c(c1)C(=Cc1cc3ccccc3o1)C(=O)N2 [10724/D07]
- PDGF Kinase %Inhibition (PDGF-R): 7.0%
- Biochem EGFR %Inhibition (EGFR): 25.6%

Structure (SMILES): CNS(=O)(=O)c1ccc2c(c1)C(=Cc1ccc(N(C)C)c3ccccc13)C(=O)N2 [10724/D02]
- PDGF Kinase %Inhibition (PDGF-R): -9.6%
- Biochem EGFR %Inhibition (EGFR): 40.5%

Structure (SMILES): Cc1c(Br)cc(Br)c2c1C(=Cc1c[nH]cn1)C(=O)N2 [10725/A11]
- PDGF Kinase %Inhibition (PDGF-R): 18.9%
- Biochem EGFR %Inhibition (EGFR): 14.6%

Structure (SMILES): O=C1Nc2ccc(S(=O)(=O)N3CCOCC3)cc2C1=Cc1c[nH]c2ccccc12 [10717/F06]
- Biochem EGFR %Inhibition (EGFR): -22.8%

Structure (SMILES): O=C1Nc2ccc(S(=O)(=O)N3CCOCC3)cc2C1=Cc1ccc(F)cc1 [10717/F05]
- Biochem EGFR %Inhibition (EGFR): -20.1%

Structure (SMILES): CCOc1ccccc1C=C1C(=O)Nc2ccc(S(=O)(=O)N3CCOCC3)cc21 [10717/F02]
- Biochem EGFR %Inhibition (EGFR): 6.2%

Structure (SMILES): Cn1cccc1C=C1C(=O)Nc2c(Br)cc(Br)cc21 [10717/A04]
- Biochem EGFR %Inhibition (EGFR): 29.0%

Structure (SMILES): O=C1Nc2ccc(S(=O)(=O)N3CCOCC3)cc2C1=Cc1cccs1 [10717/F03]
- Biochem EGFR %Inhibition (EGFR): -4.7%

Structure (SMILES): Cn1cccc1C=C1C(=O)Nc2ccc(S(=O)(=O)N3CCOCC3)cc21 [10717/F04]
- Biochem EGFR %Inhibition (EGFR): -15.7%

Structure (SMILES): Cc1[nH]c(C=C2C(=O)Nc3ccc(S(=O)(=O)Nc4ccc(C(F)(F)F)cc4)cc32)c(Br)c1Br [10717/E11]
- Biochem EGFR %Inhibition (EGFR): 44.9%
